The record followed here is patent US7179806B2, “Δ1-pyrrolines used as pesticides” (Bayer Cropscience AG, priority 2000, dated 2007).

One may read the chromatographic logP as lipophilicity estimated from chromatographic retention. Low readings indicate lower lipophilicity, high ones higher lipophilicity.

The data set in a line: log P determination by HPLC (reversed-phase C18, EEC Directive 79/831 Annex V.A8). It is filed as physicochemical. The conditions noted are these: 43° C. The source says: Mobile phases for determination in the acidic range: 0.1% aqueous phosphoric acid, acetonitrile; linear gradient from 10% acetonitrile to 90% acetonitrile.
The mark [1] stands for this setting: reversed-phase C18 HPLC column, pH 2.3, pH 2.3, 0.1% aqueous phosphoric acid/acetonitrile gradient.
[2] abbreviates: pH 2.3, 0.1% aqueous phosphoric acid/acetonitrile gradient.

Structures are written as SMILES.

For the compound `CC(C)N1CCN(c2ccc(-c3ccc(C4CCC(c5c(F)cccc5F)=N4)cc3)cn2)CC1` (stereo not drawn) [Example 192], under setting [1], the chromatographic logP amounted to 1.14. The same measure, in the same setting: next, `CN(c1ccc(-c2ccc(C3CCC(c4c(F)cccc4F)=N3)cc2)nn1)S(=O)(=O)C(F)(F)F` (stereo not drawn) [Example 53]: 1.66; `CCC(C)N1CCN(c2ncc(-c3ccc(C4CCC(c5c(F)cccc5F)=N4)cc3)cn2)CC1` (stereo not drawn) [Example 158]: 1.65.

`Fc1cccc(F)c1C1=NC(c2ccc(-c3cnc(N4CCOCC4)nc3)cc2)CC1` (stereo not drawn) [Example 32]: the chromatographic logP under setting [1] was determined as 2.18. Same read-out and setting: next, `Fc1cccc(F)c1C1=NC(c2ccc(-c3ccc(OC(C(F)(F)F)C(F)(F)F)nn3)cc2)CC1` (stereo not drawn) [Example 69]: 3.7; `Fc1cccc(F)c1C1=NC(c2ccc(-c3ccc(Cl)cn3)cc2)CC1` (stereo not drawn) [Example 5]: 2.86.

`Fc1cccc(F)c1C1=NC(c2ccc(-c3ccc(N4CCN(Cc5ccc(Cl)cc5)CC4)nc3)cc2)CC1` (stereo not drawn) [Example 173]: the chromatographic logP under setting [1] amounted to 1.83. The same measure, in the same setting: next, `CC(C)Oc1ncc(-c2ccc(C3CCC(c4c(F)cccc4F)=N3)cc2)cn1` (stereo not drawn) [Example 30]: 2.61. As for `CC(C)(C)OC(=O)N1CCN(c2ccc(-c3ccc(C4CCC(c5c(F)cccc5F)=N4)cc3)nn2)CC1` (stereo not drawn) [Example 51], the chromatographic logP under setting [2] stood at 2.07. As for `CC(C)Sc1ncc(-c2ccc(C3CCC(c4c(F)cccc4F)=N3)cc2)cn1` (stereo not drawn) [Example 31], under setting [1], the chromatographic logP came out at 3.49.

`Fc1cccc(F)c1C1=NC(c2ccc(-c3cnc(OC4CCCC4)nc3)cc2)CC1` (stereo not drawn) [Example 199]: the chromatographic logP under setting [1] is 3.21. In the case of `CN(C)c1ncc(-c2ccc(C3CCC(c4c(F)cccc4F)=N3)cc2)cn1` (stereo not drawn) [Example 42], the “log P (pH 2.3)” value under setting [2] is listed as 2.40. Under setting [1], `CON=C1CCN(c2ncc(-c3ccc(C4CCC(c5c(F)cccc5F)=N4)cc3)cn2)CC1` (stereo not drawn) [Example 215] gave a chromatographic logP of 2.65. On the same count and under the same terms, the same measure for `CCNCc1ccc(-c2ccc(C3CCC(c4c(F)cccc4F)=N3)cc2)nc1` (stereo not drawn) [Example 201]: 0.9. On the same count and under the same terms, the same measure for `N#Cc1ccccc1N1CCN(c2ccc(-c3ccc(C4CCC(c5c(F)cccc5F)=N4)cc3)cn2)CC1` (stereo not drawn) [Example 133]: 2.3. In turn, `CCCN(CCC)C(=O)c1ccc(-c2ccc(C3CCC(c4c(F)cccc4F)=N3)cc2)nc1` (stereo not drawn) [Example 11] came in with a chromatographic logP under setting [1] of 2.7.

In turn, `Fc1cccc(F)c1C1=NC(c2ccc(-c3cnc(N4CCN(Cc5ccc(Cl)cc5)CC4)nc3)cc2)CC1` (stereo not drawn) [Example 143] gave a chromatographic logP under setting [1] of 2.25.

`CN(c1ccc(Cl)nn1)S(=O)(=O)C(F)(F)F` [III-23, N-(6-chloro-3-pyridazinyl)(trifluoro)-N-methyl-methanesulphonamide] returned a chromatographic logP under setting [1] of 2.18. The chromatographic logP values of the last two compounds are within 0.2 log units of each other. Take `COCCN(CCC#N)c1ncc(-c2ccc(C3CCC(c4c(F)cccc4F)=N3)cc2)cn1` (stereo not drawn) [Example 178]: under setting [1], the chromatographic logP was 2.45. Still for that read-out and setting: next, `CCCN(CCC)c1ccc(Cl)nn1` [III-12, N-(6-chloro-3-pyridazinyl)-N,N-dipropylamine]: 1.82. `CCCN(CC)c1ncc(-c2ccc(C3CCC(c4c(F)cccc4F)=N3)cc2)cn1` (stereo not drawn) [Example 1, N-(5-{4-[5-(2,6-difluorophenyl)-3,4-dihydro-2H-pyrrol-2-yl]phenyl}-2-pyrimidinyl)-N-ethyl-N-propylamine]: the chromatographic logP under setting [1] turned out to be 3.57.

`Fc1cccc(F)c1C1=NC(c2ccc(-c3cnc(N4CCC(C(F)(F)F)CC4)nc3)cc2)CC1` (stereo not drawn) [Example 122] gave a chromatographic logP under setting [1] of 3.84.

`FC(F)(F)COc1ccc(Br)cn1` [III-2, 5-bromo-2-(2,2,2-trifluoroethoxy)pyridine] gave a chromatographic logP under setting [1] of 3.48. `CCN1CCN(c2ncc(-c3ccc(C4CCC(c5c(F)cccc5F)=N4)cc3)cn2)CC1` (stereo not drawn) [Example 101] yielded a chromatographic logP under setting [1] of 1.24.

Under setting [1], `CN(Cc1ccc(Cl)nc1)c1ncc(-c2ccc(C3CCC(c4c(F)cccc4F)=N3)cc2)cn1` (stereo not drawn) [Example 208] yielded a chromatographic logP of 2.89. The same measure, in the same setting: next, `Fc1cccc(F)c1C1=NC(c2ccc(-c3cnc(OCC4CC4)nc3)cc2)CC1` (stereo not drawn) [Example 200]: 2.74; `CCCCCCC(=O)N(CCC)c1ccc(-c2ccc(C3CCC(c4c(F)cccc4F)=N3)cc2)nn1` (stereo not drawn) [Example 64]: 3.89; `N#Cc1cccnc1N1CCN(c2ncc(-c3ccc(C4CCC(c5c(F)cccc5F)=N4)cc3)cn2)CC1` (stereo not drawn) [Example 150]: 3.28. Same read-out and setting: next, `Fc1cccc(F)c1C1=NC(c2ccc(-c3cnc(N4CCCCC4)nc3)cc2)CC1` (stereo not drawn) [Example 35]: 3.4; `CN(c1ncc(-c2ccc(C3CCC(c4c(F)cccc4F)=N3)cc2)cn1)C1CCCCC1` (stereo not drawn) [Example 212]: 4.11; `CCCOc1ncc(-c2ccc(C3CCC(c4c(F)cccc4F)=N3)cc2)cn1` (stereo not drawn) [Example 100]: 2.72. The same measure, in the same setting: next, `Fc1cccc(F)c1C1=NC(c2ccc(-c3cnc(NCc4ccco4)nc3)cc2)CC1` (stereo not drawn) [Example 184]: 2.31; `CN1CCN(c2ccc(-c3ccc(C4CCC(c5c(F)cccc5F)=N4)cc3)cn2)CC1` (stereo not drawn) [Example 96]: 1.04; `CCN(CC)c1ncc(-c2ccc(C3CCC(c4c(F)cccc4F)=N3)cc2)cn1` (stereo not drawn) [Example 43]: 3.

Under setting [1], `CC1CC(C)CN(c2ncc(-c3ccc(C4CCC(c5c(F)cccc5F)=N4)cc3)cn2)C1` (stereo not drawn) [Example 34] gave a chromatographic logP of 4.39.

With `CCN(CC)c1ccc(Cl)nn1` [III-10, N-(6-chloro-3-pyridazinyl)-N,N-diethylamine], the chromatographic logP under setting [1] is 0.51. On the same count and under the same terms, the same measure for `Fc1cccc(F)c1C1=NC(c2ccc(-c3ccc(N4CCN(c5cccc(Cl)c5)CC4)nc3)cc2)CC1` (stereo not drawn) [Example 165]: 3.17. On the same count and under the same terms, next, `CC(C)Sc1ccc(-c2ccc(C3CCC(c4c(F)cccc4F)=N3)cc2)nn1` (stereo not drawn) [Example 47]: 2.94.

Under setting [1], `CCCCCCN(C)c1ncc(-c2ccc(C3CCC(c4c(F)cccc4F)=N3)cc2)cn1` (stereo not drawn) [Example 99] displayed a chromatographic logP of 4.94. The same measure, in the same setting: next, `Fc1cccc(F)c1C1=NC(c2ccc(-c3ccc(Br)nc3)cc2)CC1` (stereo not drawn) [Example 179]: 2.69; `CC1CC(C)CN(c2ccc(-c3ccc(C4CCC(c5c(F)cccc5F)=N4)cc3)cn2)C1` (stereo not drawn) [Example 97]: 2.1; `Fc1cccc(F)c1C1=NC(c2ccc(-c3cnc(NC4CCCCC4)nc3)cc2)CC1` (stereo not drawn) [Example 162]: 3. Still for that read-out and setting: next, `CCCCCCN(C(C)=O)c1ccc(-c2ccc(C3CCC(c4c(F)cccc4F)=N3)cc2)nn1` (stereo not drawn) [Example 60]: 3.11; `O=S(=O)(N(c1ncc(-c2ccc(C3CCC(c4c(F)cccc4F)=N3)cc2)cn1)C1CC1)C(F)(F)F` (stereo not drawn) [Example 38]: 3.63; `CN(c1ccc(-c2ccc(C3CCC(c4c(F)cccc4F)=N3)cc2)nc1)S(=O)(=O)C(F)(F)F` (stereo not drawn) [Example 23]: 2.63.

`CCCCN(CCCC)c1ccc(-c2ccc(C3CCC(c4c(F)cccc4F)=N3)cc2)nn1` (stereo not drawn) [Example 55]: the chromatographic logP under setting [1] is 2.56.

In turn, `Fc1cccc(F)c1C1=NC(c2ccc(-c3cnc(N4CCN(c5cccc(Cl)c5)CC4)nc3)cc2)CC1` (stereo not drawn) [Example 136] came in with a chromatographic logP under setting [1] of 4.83. The compound `Cc1ccc(CN(C)c2ncc(-c3ccc(C4CCC(c5c(F)cccc5F)=N4)cc3)cn2)o1` (stereo not drawn) [Example 186] gave a chromatographic logP under setting [1] of 3.4.
